This is an account of results in publication PMC4433269 (PLoS ONE, 2015).

The subject of data set [1] is everted rat gut sacs. The settings on record: for ER(P2/P0): Papp with 6-gingerol / Papp alone; for ER(P1/P0): Papp with Rhizoma Zingiberis extract / Papp alone. As to the method: (§1) All of the rats were starved for 24 h before the experiments. The rats were sacrificed by decapitation, and the duodenum, jejunum, ileum and colon were immediately removed and placed in a 37°C K-R solution that was oxygenated (O2/CO2, 95%:5%). After washing in order with K-R solution at room temperature, the four intestinal segments were everted on a glass rod (3 mm in diameter) with one end of each clamped before filling with fresh oxygenated K-R solution. The intestines were then sealed with braided sutures. Each sac was placed in a 10 mL test tube that contained 8 mL of oxygenated drug-containing K-R solution at 37°C. Then, 0.1 mL of serosal fluid was collected at the appropriate time points, and an equal volume of K-R solution was added to the serosal side. Finally, the solution in the sacs was collected to accurately calculate the volume, and each sac was accurately weighed before and after being cut open. The area of each sac was measured. All of the samples were analyzed using the UPLC-MS method. After analysis, the amounts (ng/mm^2) of absorbed aconitine and digoxin were calculated. Each experiment was repeated five times, and the presented data represent the means ± S.D. This study was conducted in accordance with the internationally accepted principles for laboratory animal use and care as found in the European Community guidelines.
(§2) The analytical UPLC-MS system consisted of an Acquity Ultra Performance LC with a Xevo TQ mass spectrometer as the detector, and it was equipped with an electrospray source in the positive ion mode (Waters Co., USA). Separation was performed on a BEH Extend-C18 column (2.1*50 mm, 1.7 μm, Agilent Co., USA). The mobile phase was composed of methanol mixed with acetonitrile in equal volumes (A) and an aqueous solution of ammonium acetate at pH 10.5 (B). The gradient elution conditions were as follows: 0–1 min 10–43% A, 2–4.5 min 55–100% A, and 5–7 min 10% A. The flow rate was 0.3 mL/min. The column temperature was 35°C throughout the entire detection process. All of the samples were freeze-dried after being collected from the serosal side, and the residue was dissolved with 0.1 mL of the mobile phase (A) prior to injecting 5 μL of each sample into the UPLC system.
To study the effect of the Rhizoma Zingiberis extract on the concentration of aconitine in the rat gut sacs, the apparent […] coefficient (Papp) was calculated using the equation Papp = [V/(A·C0)]·dC/dt, where V represents the fluid volume in the serosal side, A represents the superficial area of the gut sac, and C0 represents the initial concentration of aconitine outside the gut sac.
The experiment described in this section was conducted under the same conditions as decribed in the “Effect of the Rhizoma Zingiberis extract on the level of aconitine in the rat gut sacs” section.

Data set [2] concerns P-glycoprotein. The experiment in a line: Effect on the level of the P-gp substrate digoxin in rat gut sacs. Format: in vitro ADME. As to the method: as §1
The flow rate was 0.3 mL/min.

Data set [3] relates to everted rat gut sacs. It counts as in vitro ADME. The following applies: 120 min. As to the method:
as §1, §2
The intestinal kinetic absorptive behavior of aconitine was investigated in the gut sac model cultured in K-R nutrient solution for 120 min. The accumulative absorbed dose (Q) of aconitine was calculated for use in zero-level, primary and Higuchi equation fitting. Then, the determination coefficient (R^2) of the equation was set as the evaluation criterion for the quality of the fit. […] The slope of the fitting equation represents the absorption rate constant (ka).

Data set [4] concerns P-glycoprotein. The settings on record: deduced from verapamil effect in rat gut sacs. Here is the method: as §1
In data set [5] the test system is everted rat gut sacs. Nature of the data set: Viability of the everted rat gut sacs (serosal/mucosal glucose ratio). The settings on record: incubation up to 120 min; Fig 5.
Protocol: To verify the integrity and viability of the gut sacs, glucose was collected from both the serosal side and the mucosal side of the rat gut sacs at a fixed time, and glucose was detected using a Waters UPLC/MS (Waters Co., USA), which is more accurate and sensitive than a UV-Vis detector. Separation was performed on a Hypersil NH column (4.6*150 mm, 25 μm, Elite Co., China). Although only glucose was available for detection in this part, the column separation was essential because large amounts of inorganic salts were present in the K-R nutrient solution. A mobile phase composed of 80% acetonitrile (A) and 20% distilled water (B) was used for isocratic elution. The retention time for glucose was 7.37 min. The peak area ratio of glucose in the serosal side to that in the mucosal side was used to validate the viability of the everted rat gut sacs.
The format of data set [6] is physicochemical. The settings on record: for Stability RSD%: 0 h, 24 h and 48 h; for Stability of QC samples: RSD % less than 15%. As to the method: The selectivity was examined by detecting blank K-R nutrient solutions, which were useful only if no peaks appeared at the retention times of aconitine and digoxin. The inter-day and intra-day accuracies were evaluated by calculating the percent relative standard deviation (RSD %) of the concentration of the quality control (QC) samples on the same day or over three days. The matrix effect was determined by comparing the concentrations of samples with standard solution added into a blank K-R solution after extraction with QC samples. The extraction recovery was calculated by comparing the concentration of normally extracted samples with that of the QC samples. The stability was evaluated by calculating the RSD % of the concentration of the quality control (QC) samples at 0 h, 24 h and 48 h. The accuracy, matrix effect, extraction recovery and stability were all replicated by five QC samples at three levels. The LOD and LLOQ were the concentrations of QC samples with peak signal-to-noise ratios (S/N) of at least 3 and 10, respectively.

A short description of data set [7]: Solubility in tested solvents during sample processing. The following applies: tested solvents: methanol, ethanol, acetonitrile, distilled water, DMSO. Here is the method:
Because there were numerous inorganic salts that were harmful to the mass spectrometer in the everted sac samples, dechloridation was the first consideration when we developed the processing method. We applied lyophilization as the first step for prolonging the resting period of the samples to avoid the decomposition of unstable components. […] Therefore, the second step consisted of dissolving aconitine in methanol. […] The third step consisted of centrifuging, and 5 μL of the supernatant liquid was injected into the UPLC/MS.

The subject of data set [8] is P-glycoprotein. Details: method as in earlier work. The settings on record: Caco-2 cell culture model; cited from earlier work.
[9] abbreviates: Middle concentration QC samples.

Each structure is given as a SMILES string. Like-named read-outs stand apart in the source and are kept apart here.

With `CCCCC[C@H](O)CC(=O)CCc1ccc(O)c(OC)c1` [6-gingerol], the “Effect on the level (Papp) of aconitine in the rat gut sacs” value in data set [1] (added to high aconitine concentration, all four gut sacs) is “P2 value is smaller than the P0 value in each gut sac”. The “Effect on digoxin content in gut sacs” value in data set [2] (co-incubated with digoxin, every gut sac, Fig 7, Fig 9) is given as “decreased”. Further, the “Effect on P-glycoprotein (inducer / revulsant)” value in data set [2] (deduced from decreased digoxin level in rat gut sacs) is recorded as “potential revulsant of P-gp”.
Turning to `CCN1C[C@]2(COC)[C@H](O)C[C@H](OC)[C@@]34[C@@H]5C[C@@]6(O)[C@H](OC(=O)c7ccccc7)[C@@H]5[C@@](OC(C)=O)([C@@H]([C@H](OC)[C@H]23)[C@@H]14)[C@@H](O)[C@@H]6OC` [aconitine], the “Fitting equation (zero-level; slope = absorption rate constant ka)” value in data set [3] (colon, aconitine 75 ng/mL) was “Q = 0.01937t”; in data set [3] (colon, aconitine 750 ng/mL) it was “Q = 0.1302t”; in data set [3] (colon, aconitine 7500 ng/mL), “Q = 2.000t”; in data set [3] (duodenum, aconitine 75 ng/mL), “Q = 0.02546t”; in data set [3] (duodenum, aconitine 750 ng/mL) it was “Q = 0.05406t”; in data set [3] (duodenum, aconitine 7500 ng/mL), “Q = 3.528t”. Also, the “Fitting equation (zero-level; slope = absorption rate constant ka)” value in data set [3] (ileum, aconitine 75 ng/mL) is given as “Q = 0.01294t”; in data set [3] (ileum, aconitine 750 ng/mL), “Q = 0.2906t”; in data set [3] (ileum, aconitine 7500 ng/mL) it was “Q = 2.529t”; in data set [3] (jejunum, aconitine 75 ng/mL), “Q = 0.02977t”; in data set [3] (jejunum, aconitine 750 ng/mL) it was “Q = 0.2028t”; in data set [3] (jejunum, aconitine 7500 ng/mL), “Q = 3.2531t”. For the same compound, the “ER(P2/P0)” value in data set [1] (colon) worked out at 0.4363; in data set [1] (duodenum) it was 0.3602; in data set [1] (ileum), 0.3464; in data set [1] (jejunum), 0.3979. In addition, the “ER(P1/P0)” value in data set [1] (colon) was determined as 0.6695; in data set [1] (duodenum), 0.2703; in data set [1] (ileum), 0.3615; in data set [1] (jejunum) it was 0.3942. Further, the P-glycoprotein substrate status entry in data set [4] was “potential substrate of P-glycoprotein”. Further, the “Toxicity to gut sac tissue (glucose serosal/mucosal ratio)” value in data set [5] is “did not induce toxicity in the gut sac tissue”. The results for the “Stability RSD%” value in data set [6] (High concentration QC samples), in data set [6] (Low concentration QC samples) and in data set [6] (setting [9]) were 10.04%, 2.448% and 11.72%, respectively. The “Stability of QC samples” value in data set [6] is recorded as “stable for 48 h”. In data set [7], the Solubility in solvents result is “able to be dissolved in methanol”. In addition, the “P-glycoprotein substrate / inhibitor status” value in data set [8] is “both a substrate and an inhibitor of P-glycoprotein”.
Take `C[C@H]1O[C@@H](O[C@H]2[C@@H](O)C[C@H](O[C@H]3[C@@H](O)C[C@H](O[C@H]4CC[C@@]5(C)[C@H](CC[C@@H]6[C@@H]5C[C@@H](O)[C@]5(C)[C@@H](C7=CC(=O)OC7)CC[C@]65O)C4)O[C@@H]3C)O[C@@H]2C)C[C@H](O)[C@@H]1O` [digoxin, reference compound]: the “Stability RSD%” value in data set [6] (High concentration QC samples) came out at 1.336%; in data set [6] (Low concentration QC samples), 2.036%; in data set [6] (setting [9]), 4.913%. Moreover, the “Stability of QC samples” value in data set [6] is “stable for 48 h”. For the same compound, in data set [7], the Solubility in solvents result is on record as “only could be dissolved in dimethyl sulfoxide (DMSO) among the tested solvents”.
